For 14 molecules, IC50 results are on record in patent US7276511B2, “Benzylamine derivative” (Zeria Pharmaceutical Co., Ltd., priority 2003, dated 2007).

Counter-ions that a name gives are not always drawn.

In the first assay the target is NK-1 receptor (Homo sapiens, UniProt P25103). Nature of the assay: NK-1 receptor-binding test ([3H]-Substance P, hNK1-CHO cells).
Chain of NK-1 receptor (P25103 whole entry): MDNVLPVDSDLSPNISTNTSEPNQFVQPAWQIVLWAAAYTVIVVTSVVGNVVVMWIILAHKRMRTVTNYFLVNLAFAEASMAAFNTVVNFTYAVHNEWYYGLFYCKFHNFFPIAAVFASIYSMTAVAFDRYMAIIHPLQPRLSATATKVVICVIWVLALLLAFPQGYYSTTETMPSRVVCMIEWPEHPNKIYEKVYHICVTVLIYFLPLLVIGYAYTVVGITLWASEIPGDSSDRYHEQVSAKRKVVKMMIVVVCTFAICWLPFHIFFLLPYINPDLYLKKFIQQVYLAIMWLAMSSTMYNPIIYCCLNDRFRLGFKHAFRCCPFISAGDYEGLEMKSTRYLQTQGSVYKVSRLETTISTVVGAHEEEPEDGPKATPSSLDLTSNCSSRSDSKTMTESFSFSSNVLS
Conditions: not given
Details: expressed in transfected cells; host or cells: CHO-K1 cells (ATCC: CCL-61), G418-resistant, hNK1-CHO. Here is the method: 1. NK-1 Receptor-binding Test
1) Preparation of Human NK-1 Receptor Expression Cells
FuGene 6 transfection reagent (Boegringer Mannheim) (3 μL) was diluted in an F-12 culture broth (97 μL), and pCR3.1 plasmid to which human NK-1 receptor cDNA had been introduced (Invitrogen) (10 μL) was added thereto. The mixture was mixed and incubated for 15 minutes (transfection reagent). CHO-K1 cells (ATCC: CCL-61) were cultured for 24 hours, and the whole reagent prepared above was added to the cultured CHO-K1 cells ([…]). Subsequently, culture was performed in the presence of G418 (Stratagene), and the resistant cells were employed as cells into which human NK-1 receptor gene was introduced (hNK1-CHO).
2) Subcultivation of hNK1-CHO Cells
The hNK1-CHO cells were treated with trypsin-EDTA and subcultivated in an F-12 culture broth (containing 10% fetal bovine serum, 10 mM HEPES, 100 U/mL, penicillin, 100 μg/mL streptmycin, 400 μg/mL G418) in a 75-cm^2 flask (FALCON). Cells to be employed in the receptor-binding experiment were added to a 24-well plate (IWAKI) at 1×10^5 cells/well, and subcultured for 48 hours at 37° C. under 95% […] and 5% CO2.
3) Receptor-binding Experiment
When the hNK1-CHO cells became subconfluent on the 24-well plate, an F-12 culture broth (containing 10 mM HEPES and 0.1% fetal bovine serum) (450 μL), [^3H]-Substance P (Amersham, final concentration 0.5 nM), and a test compound were added to the cells, and the mixture was incubated for 40 minutes at 37° C. For the measurement of non-specific binding, L703606 (Sigma) was added instead of the test compound. After completion of incubation, the mixture was washed with ice-cooled phosphate buffered saline containing 0.1% fetal bovine serum, and the cells were lysed with 1N NaOH (0.5 mL). The lysate was transfered to a plastic vial containing UltimaGold MV (5 mL), and the radioactivity was determined by means of a liquid liquid scintillation counter (Packard, 2000CA).
(§1) Percent radioactive ligand-receptor binding inhibition of each test compound was calculated by use of the following equation, and IC50 (nM) was determined through pseudo-Hill analysis.
(§2) Percent inhibition (%)=[1−(C−A)/(B−A)]×100
(§3) A: Radioactivity attributed to non-specific binding
(§4) B: Radioactivity without test compound
(§5) C: Radioactivity with test compound
`COc1cc(COCC(CCCN2CCC(C(N)=O)(c3ccccc3)CC2)(c2ccc(Cl)c(Cl)c2)N(C)C(=O)Oc2ccccc2)cc(OC)c1OC` (racemic) [Compound No. 17, [4-(4-Carbamoyl-4-phenyl-piperidine-1-yl)-1-(3,4-dichloro-phenyl)-1-(3,4,5-trimethoxy-benzyloxymethyl)-butyl]-methyl-carbamic acid phenyl ester hydrochloride] gave an IC50 of 1.5 nM.

The molecule `CN(C[C@](CCCN1CCC(C(N)=O)(c2ccccc2)CC1)(c1ccc(Cl)c(Cl)c1)N(C)C(=O)Oc1ccccc1)C(=O)C(F)(F)F` [Compound No. 578, phenyl[1-(2,2,2-trifluoro-N-methylacetamide)-2-(S)-(3,4-dichlorophenyl)-5-(4-carbamoyl-4-phenylpiperidine-1′-yl)pentan-2-yl]methylcarbamate hydrochloride] displayed an IC50 of 9.5 nM.

In turn, `COc1cc(C(=O)N(C)C[C@](CCCN2CCC3(CC2)c2ccccc2C[S@+]3[O-])(c2ccc(Cl)c(Cl)c2)N(C)C(=O)Oc2ccccc2)cc(OC)c1OC` [Compound No. 589, phenyl{1-(3,4,5-trimethoxy-N-methylbenzamide)-2-(S)-(3,4-dichlorophenyl)-5-[spiro(benzo(c)thiophene-(2S)-oxido-1(3H),4′-piperidin)-1′-yl]pentan-2-yl}methylcarbamate hydrochloride] registered an IC50 of 0.53 nM.

The assay is the same for the next values; noted with them: Table 2; inhibition of [3H]-Substance P (0.5 nM) binding to hNK1-CHO cells, pseudo-Hill analysis; read-out: NK-1.
Consider `COc1cc(COCC(CCCN2CCC(C(N)=O)(c3ccccc3)CC2)(c2ccc(Cl)c(Cl)c2)N(C)C(=O)Nc2ccccc2)cc(OC)c1OC` (racemic) [Compound No. 15, 1-[4-(3,4-Dichloro-phenyl)-4-(1-methyl-3-phenyl-ureido)-5-(3,4,5-trimethoxy-benzyloxy)-pentyl]-4-phenyl-piperidine-4-carboxylic acid amide], for which the IC50 is 0.9 nM.

`COc1cc(C(=O)N(C)CC(CCN2CCC(C(N)=O)(c3ccccc3)CC2)(c2ccc(Cl)c(Cl)c2)N(C)C(=O)Oc2ccccc2)cc(OC)c1OC` (racemic) [Compound No. 16, (3-(4-Carbamoyl-4-phenyl-piperidine-1-yl)-1-(3,4-dichloro-phenyl)-1-{[methyl-(3,4,5-trimethoxy-benzoyl)-amino]-methyl}-propyl)-methyl-carbamic acid phenyl ester hydrochloride]: the IC50 was found to be 3.5 nM.

The target of a further assay is T1, Cloned Neurokinin Receptor Subtype 2 Human (Homo sapiens, UniProt P21452).
T1 construct: purchased Biosignal Packard; host or cells: CHO cells
T1 sequence (P21452 1-398): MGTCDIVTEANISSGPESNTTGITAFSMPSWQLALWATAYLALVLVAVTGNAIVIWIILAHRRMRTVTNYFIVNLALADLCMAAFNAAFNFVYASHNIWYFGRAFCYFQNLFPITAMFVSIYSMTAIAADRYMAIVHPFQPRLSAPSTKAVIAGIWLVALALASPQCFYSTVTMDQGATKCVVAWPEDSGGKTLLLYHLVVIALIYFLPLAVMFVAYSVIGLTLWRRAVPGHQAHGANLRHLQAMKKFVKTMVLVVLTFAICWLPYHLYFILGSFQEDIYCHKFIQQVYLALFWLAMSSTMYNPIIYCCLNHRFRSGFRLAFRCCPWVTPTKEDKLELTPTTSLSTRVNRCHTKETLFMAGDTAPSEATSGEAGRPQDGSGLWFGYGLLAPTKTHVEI
Nature of the assay: NK-2 receptor-binding experiment ([3H]-SR48968, CHO cell membranes). Particulars: Table 3; inhibition of [3H]-SR48968 (0.85 nM) binding, pseudo-Hill analysis. How it is done: 2. NK-2 Receptor-binding Experiment
Cloned Neurokinin Receptor Subtype 2 Human (CHO cells, Biosignal Packard), [^3H]-SR48968 (Amersham, final concentration 0.85 nM), and a test compound were mixed with 20 mM HEPES buffer, and the mixture was incubated for 50 minutes at 27° C. After completion of incubation, membrane components were collected by means of an automatic filtration apparatus (Brandel) onto a GF/C glass fiber filter (Whatman).
Before use, in order to prevent non-specific binding, the glass fiber filter had been pre-treated with 0.1% polyethylene imine solution for about 4 hours.
The filter employed to collect the membrane components was transferred to a plastic vial containing UltimaGold MV (5 mL), and measured by means of a liquid scintillation counter (Packard, 2000CA) in terms of the radioactivity.
as §1, §2, §3, §4, §5
The molecule `CC(C)C(=O)N(C)C[C@](CCN1CCC2(CC1)c1ccccc1C[S@+]2[O-])(c1ccc(Cl)c(Cl)c1)N(C)C(=O)C(=O)N(C)c1ccccc1` [Compound No. 33, N^1-{1-(N-methylisobutylamide)-2-(S)-(3,4-dichlorophenyl)-4-[spiro(benzo(c)thiophene-(2S)-oxido-1(3H), 41-piperidin)-1′-yl]butan-2-yl}-N^1,N^2-dimethyl-N^2-phenyloxalamide hydrochloride] displayed an IC50 of 0.65 nM.

In the case of `CCC(=O)N(C)C[C@](CCN1CCC2(CC1)c1ccccc1C[S@+]2[O-])(c1ccc(Cl)c(Cl)c1)N(C)C(=O)c1ccccc1` [Compound No. 34, N-{1-(N-methyl-propionamide)-2-(S)-(3,4-dichlorophenyl)-4-[spiro(benzo(c)thiophene-(2S)-oxido-1(3H),4′-piperidin)-1′-yl]butan-2-yl}-N-methylbenzamide hydrochloride], the IC50 amounted to 0.96 nM.

The molecule `CCC(=O)N(C)C[C@](CCN1CCC2(CC1)c1ccccc1C[S@+]2[O-])(c1ccc(Cl)c(Cl)c1)N(C)C(=O)C(=O)N(C)c1ccccc1` [Compound No. 35, N^1-{1-(N-methyl-propionamide)-2-(S)-(3,4-dichlorophenyl)-4-[spiro(benzo(c)thiophene-(2S)-oxido-1(3H),4′-piperidin)-1′-yl]butan-2-yl}-N^1,N^2-dimethyl-N^2-phenyloxalamide hydrochloride] gave an IC50 of 4.6 nM.

As for `CC(=O)N(C)C[C@](CCN1CCC2(CC1)NC(=O)Cc1ccccc12)(c1ccc(Cl)c(Cl)c1)N(C)C(=O)c1ccccc1` [Compound No. 36, N-{1-(N-methyl-acetamide)-2-(S)-(3,4-dichlorophenyl)-4-[3-oxo-3,4-dihydro-2H-spiro(isoquinoline-1,4′-piperidin)-1′-yl]butan-2-yl}-N-methylbenzamide hydrochloride], the IC50 came to 0.85 nM.

For the molecule `CCN(C(=O)C(=O)N(C)[C@](CCN1CCC2(CC1)c1ccccc1C[S@+]2[O-])(CN(C)C(=O)C(C)(C)C)c1ccc(Cl)c(Cl)c1)c1ccccc1` [Compound No. 37, N^1-{[1-(N-methyl-trimethylacetamide)-2-(S)-(3,4-dichlorophenyl)-4-[spiro(benzo(c)thiophene-(2S)-oxido-1(3H),4′-piperidin)-1′-yl]butan-2-yl}-N^1-methyl-N^2-ethyl-N^2-phenyloxalamide hydrochloride], the IC50 was found to be 1.8 nM.

Consider `CCN(C(=O)C(=O)N(C)[C@](CCN1CCC2(CC1)NC(=O)Cc1ccccc12)(CN(C)C(=O)C(C)(C)C)c1ccc(Cl)c(Cl)c1)c1ccccc1` [Compound No. 38, N^1-{1-(N-methyl-trimethylacetamide)-2-(S)-(3,4-dichlorophenyl)-4-[3-oxo-3,4-dihydro-2H-spiro(isoquinoline-1,4′-piperidin)-1′-yl]butan-2-yl}-N^1-methyl-N^2-ethyl-N^2-phenyloxalamide hydrochloride], for which the IC50 was found to be 1.9 nM.

For the molecule `CCN(C(=O)C(=O)N(C)[C@](CCN1CCC2(CC1)c1ccccc1C[S@+]2[O-])(CN(C)C(=O)C(C)C)c1ccc(Cl)c(Cl)c1)c1ccccc1` [Compound No. 39, N^1-{1-(N-methylisobutylamide)-2-(S)-(3,4-dichlorophenyl)-4-[spiro(benzo(c)thiophene-(2S)-oxido-1(3H),4′-piperidin)-1′-yl]butan-2-yl}-N^1-methyl-N^2-ethyl-N^2-phenyloxalamide hydrochloride], the IC50 came out at 1 nM.

For the molecule `CCN(C(=O)C(=O)N(C)[C@](CCN1CCC2(CC1)NC(=O)Cc1ccccc12)(CN(C)C(=O)C(C)C)c1ccc(Cl)c(Cl)c1)c1ccccc1` [Compound No. 40, N^1-{1-(N-methylisobutylamide)-2-(S)-(3,4-dichlorophenyl)-4-[3-oxo-3,4-dihydro-2H-spiro(isoquinoline-1,4′-piperidin)-1′-yl]butan-2-yl}-N^1-methyl-N^2-ethyl-N^2-phenyloxalamide hydrochloride], the IC50 turned out to be 0.73 nM.

Take `CCN(C(=O)C(=O)N(C)[C@](CCN1CCC2(CC1)NC(=O)Cc1ccccc12)(CN(C)C(=O)CC(F)(F)F)c1ccc(Cl)c(Cl)c1)c1ccccc1` [Compound No. 41, N^1-{1-(3,3,3-trifluoro-N-methylpropanamido)-2-(S)-(3,4-dichlorophenyl)-4-[3-oxo-3,4-dihydro-2H-spiro(isoquinoline-1,4′-piperidin)-1′-yl]butan-2-yl}-N^1-methyl-N^2-ethyl-N^2-phenyloxalamide hydrochloride]: the IC50 is 0.84 nM.
